Experimental data taken from patent US7153494B2, “Dibenzoylmethane sunscreen compositions photostabilized with amphiphilic block copolymers” (L'Oreal, priority 2002, dated 2006).

Test: Photostability of oily Parsol 1789/block copolymer mixture as a thin coat on a glass plate, xenon lamp irradiation, absorption spectrophotometry
Assay type: physicochemical
Conditions: mixture with Tegomer SE-1010; thin coat about 10 microns on glass plate, in presence of oxygen; UV-A 22 J/cm^2, 20 minutes
Experimental: The Parsol® 1789 was dispersed in the Tegomer SE-1010 with heating at 40° C. for 60 minutes. The mixture was allowed to cool to room temperature. The oily mixture was ready for use.
The oily mixture was evaluated in the form of a thin coat of about 10 microns deposited on a glass plate (microscope slide), in the presence of oxygen.
An irradiation was then performed, using an Ostram-Centra Uvimeter equipped with a xenon lamp, under the following conditions: • Energy of the UV-A lamp: 22 J/cm^2 • Irradiation time of the simulator=20 minutes
These conditions correspond to about one hour of solar UV-A sunshine.
The photodegradation was monitored by absorption spectrophotometry. The following results were obtained: • 1) The mixture was able to form a film and the quality of the film was not impaired by the irradiation. • 2) 100% of the Parsol® 1789 was recovered after this exposure.

Parsol 1789 recovered after exposure: 100%
SMILES: COc1ccc(C(=O)CC(=O)c2ccc(C(C)(C)C)cc2)cc1 [Parsol® 1789, 4-(tert-butyl)-4′-methoxydibenzoylmethane]
